# Source: patent US20090232853A1, “TREATMENT OF LAMINITIS” (priority 2005, published 2009)
# Assays:
# [1] = test system: equine digital blood vessels; experiment: isolated blood vessel work, isometric tension recording
# Excerpt: The coronary band veins and the distal artery were dissected from equine hind limbs obtained from abattoir collections (animals euthanased for non related reasons), cut into rings of approximately 3 mm in length and prepared for isometric tension recording—a method established in the laboratory for looking at endothelium intact responses of equine digital.
# [2] = test system: Tyrosine decarboxylase (TDC); experiment: inhibition of decarboxylase activity; assay type: biochemical; conditions: tyrosine to tyramine by TDC
# Excerpt: Tyrosine decarboxylase (TDC) decarboxylases tyrosine to tyramine.
# ponies = experiment: effect of dietary fructan carbohydrates on normal and laminitic ponies; assay type: in vivo
# Excerpt: Eleven adult, native breed ponies were used in the diet study; 5 normals and 6 predisposed to laminitis (asymptomatic at the time of the study). A basal hay diet was fed for 2 weeks, prior to the inclusion of inulin (sourced from chicory root; 3 g/kg body weight per day), fed in 3 equal feeds. The daily forage ration also included ⅔ hay, by weight, and ⅓ Readigrass® (to act as a source of amino acids). Fecal and blood samples were taken during both diets to measure amine concentration (by HPLC and LC-MS, respectively) and fecal pH.
# [3] = test system: streptococci and lactobacilli in equine caecal contents; experiment: in vitro model of carbohydrate overload: enumeration of caecal streptococci and lactobacilli; parameters: species or system horses; conditions: virginiamycin 1 mg/100 ml, with corn starch or inulin
# Description: Use of an in vitro model of carbohydrate overload to study the change in populations of caecal streptococci and lactobacilli and to establish whether certain species of these bacteria were capable of producing vasoactive amines from amino acids.
# Caecal contents from 10 horses were divided into aliquots and incubated anaerobically with either corn starch or inulin (fructan; both 1 g 100 ml). Samples were taken at 6 h intervals over a 24 h period for enumeration of streptococci, lactobacilli and Gram-negative anaerobes by a dilution method onto standard selective growth media. […]
# Effects of carbohydrate overload on numbers of (a) streptococci, (b) lactobacilli and (c) Gram-negative anaerobes in equine caecal contents incubated anaerobically in vitro. […] Bacterial numbers in each aliquot at 6 h intervals were determined by serial dilution of caecal contents in sterile RPS plated onto selective growth medium. […]
# Effects of virginiamycin and calcium hydrogen-phosphate on numbers of Streptococcus and Lactobacillus spp. in equine caecal contents induced by incubation with starch or inulin. […] Bacterial numbers were measured at 0 and 24 h, expressed as CFU/ml, and the magnitude of the change over this period was calculated by dividing the number of bacteria present at 24 h by the initial figure (geometric mean±s.e.m. of estimates taken from 4 separate experiments).
# [4] = inulin diet vs basal hay diet, FIG. 12
compound,measurement,setting,value
"CC(=O)N[C@@H](CS)C(=O)O [NAC, N-acetyl cysteine]",relaxation of isolated digital blood vessels,"[1]; antioxidant added to the medium, vs control, FIG. 14",increase the relaxation above that of the control
same,contraction of digital veins in response to vasoactive amines,"[1]; pre incubation in the medium, response to Tryptamine, FIG. 15",reduced contraction
NC(CO)C(=O)NNCc1ccc(O)c(O)c1O (stereo not drawn) [benserazide],production of tyramine,[2],inhibited
C[C@@](Cc1ccc(O)c(O)c1)(NN)C(=O)O [carbidopa],production of tyramine,[2],inhibited
O=c1c(-c2ccc(O)cc2)coc2cc(O)cc(O)c12 [genestin],reduction of contraction of digital veins in response to vasoactive amines,"[1]; flavonoid added to the medium, response to Tryptamine, FIG. 15",30%
inulin,signs of laminitis,"ponies; inulin 3 g/kg body weight per day in 3 feeds, 5 normal and 6 laminitis-predisposed ponies",No animal showed any signs of laminitis
same,increase in tryptamine concentration,ponies; [4],58.6%
same,increase in tyramine concentration,ponies; [4],23.3%
virginiamycin,effect on carbohydrate-induced increases in numbers of streptococci and lactobacilli,[3],abrogated
